Measurements as given in patent US7968556B2, “Heteroaryl compounds, compositions thereof, and methods of treatment therewith” (Signal Pharmaceuticals, LLC, priority 2006, dated 2011).

Q: For COc1ccccc1-n1c(=O)[nH]c2c(C(N)=O)nc(-c3cccc(C(N)=O)c3)nc21 [Compound 68, 2-(3-Carbamoylphenyl)-9-(2-methoxyphenyl)-8-oxo-8,9-dihydro-7H-purine-6-carbox amide], which melting point is on record?
A: 338 to 339 °C

Q: For CO[C@H]1CC[C@H](n2c(=O)[nH]c3c(C(N)=O)nc(-c4cccc(O)c4)nc32)CC1 [Compound 143, 9-(trans-4-Methoxycyclohexyl)-2-(3-hydroxyphenyl)-8-oxo-8,9-dihydro-7H-purine-6-carboxamide], which melting point is on record?
A: 355 to 357 °C

Q: With CC(C)c1ccccc1-n1c(=O)[nH]c2c(C(N)=O)nc(-c3ccc(-c4nc[nH]n4)cc3)nc21 [Compound 121, 2-(4-(1H-1,2,4-Triazol-3-yl)phenyl)-9-(2-isopropylphenyl)-8-oxo-8,9-dihydro-7H-purine-6-carboxamide] as the compound, how does the melting point read?
A: 368 °C

Q: For CO[C@H]1CC[C@@H](n2c(=O)[nH]c3c(C(N)=O)nc(-c4cccc(O)c4)nc32)CC1 [Compound 144, 9-(cis-4-Methoxycyclohexyl)-2-(3-hydroxyphenyl)-8-oxo-8,9-dihydro-7H-purine-6-carboxamide], which melting point is on record?
A: 345 to 347 °C

Q: With NC(=O)c1nc(-c2cccc(O)c2)nc2c1[nH]c(=O)n2-c1cccc2c1CCCC2 [Compound 145, 2-(3-Hydroxyphenyl)-8-oxo-9-(5,6,7,8-tetrahydronaphthalen-1-yl)-8,9-dihydro-7H-purine-6-carboxamide] as the compound, how does the melting point read?
A: > 250 °C

Q: With NC(=O)c1nc(-c2cccc(O)c2)nc2c1[nH]c(=O)n2C1CCOCC1 [Compound 151, 2-(3-Hydroxyphenyl)-8-oxo-9-(tetrahydro-2H-pyran-4-yl)-8,9-dihydro-7H-purine-6-carboxamide] as the compound, how does the melting point read?
A: 361 to 363 °C

Q: Which melting point does the source give for CO[C@H]1CC[C@@H](n2c(=O)[nH]c3c(C(N)=O)nc(-c4ccc5nc[nH]c5c4)nc32)CC1 [Compound 167, 2-(1H-Benzo[d]imidazol-6-yl)-9-(cis-4-methoxycyclohexyl)-8-oxo-8,9-dihydro-7H-purine-6-carboxamide] here?
A: 345 °C (dec.)

Q: For NC(=O)c1nc(-c2cnc3nc[nH]c3c2)nc2c1[nH]c(=O)n2C1CCCCC1 [Compound 150, 9-Cyclohexyl-2-(1H-imidazo[4,5-b]pyridin-6-yl)-8-oxo-8,9-dihydro-7H-purine-6-carboxamide], which melting point is on record?
A: 320 °C (dec.)

Q: For CC(C)Cn1c(=O)[nH]c2c(C(N)=O)nc(-c3cccc(O)c3)nc21 [Compound 142, 2-(3-Hydroxyphenyl)-9-isobutyl-8-oxo-8,9-dihydro-7H-purine-6-carboxamide], which melting point is on record?
A: 374 to 376 °C

Q: Which melting point does the source give for COc1cccc(-n2c(=O)[nH]c3c(C(N)=O)nc(-c4cccc(O)c4)nc32)c1F [Compound 148, 9-(2-Fluoro-3-methoxyphenyl)-2-(3-hydroxyphenyl)-8-oxo-8,9-dihydro-7H-purine-6-carboxamide] here?
A: > 260 °C

Q: With NC(=O)c1nc(-c2cccc(O)c2)nc2c1[nH]c(=O)n2[C@H]1CCOC1 [Compound 163, (S)-2-(3-Hydroxyphenyl)-8-oxo-9-(tetrahydrofuran-3-yl)-8,9-dihydro-7H-purine-6-carboxamide] as the compound, how does the melting point read?
A: 354 to 356 °C

Q: For CC(C)c1ccccc1-n1c(=O)[nH]c2c(C(N)=O)nc(-c3cnc4[nH]ccc4c3)nc21 [Compound 136, 9-(2-Isopropylphenyl)-8-oxo-2-(1H-pyrrolo[2,3-b]pyridin-5-yl)-8,9-dihydro-7H-purine-6-carboxamide], which melting point is on record?
A: 380 °C (dec.)

Q: Which melting point does the source give for COc1ccccc1-n1c(=O)[nH]c2c(C(N)=O)nc(-c3ccc4[nH]c(SC)nc4c3)nc21 [Compound 138, 9-(2-Methoxyphenyl)-2-(2-(methylthio)-1H-benzo[d]imidazol-5-yl)-8-oxo-8,9-dihydro-7H-purine-6-carboxamide] here?
A: 244 to 245 °C

Q: For NC(=O)c1nc(-c2cccc(O)c2)nc2c1[nH]c(=O)n2C1CCc2ccccc21 (stereo not drawn) [Compound 141, 9-(2,3-Dihydro-1H-inden-1-yl)-2-(3-hydroxyphenyl)-8-oxo-8,9-dihydro-7H-purine-6-carboxamide], which melting point is on record?
A: 341 to 343 °C

Q: With CC(C)c1ccccc1-n1c(=O)[nH]c2c(C(N)=O)nc(-c3ccc4nc[nH]c4c3)nc21 [Compound 127, 2-(1H-Benzo[d]imidazol-6-yl)-9-(2-isopropylphenyl)-8-oxo-8,9-dihydro-7H-purine-6-carboxamide] as the compound, how does the melting point read?
A: 275 °C (dec.)

Q: With CC(C)c1ccccc1-n1c(=O)[nH]c2c(C(N)=O)nc(-c3ccc(-n4ccnc4)cc3)nc21 [Compound 131, 2-(4-(1H-Imidazol-1-yl)phenyl)-9-(2-isopropylphenyl)-8-oxo-8,9-dihydro-7H-purine-6-carboxamide] as the compound, how does the melting point read?
A: 232 °C

Q: With NC(=O)c1nc(-c2ccc(O)nc2)nc2c1[nH]c(=O)n2-c1ccccc1C(F)(F)F [Compound 100, 2-(6-Hydroxypyridin-3-yl)-8-oxo-9-(2-(trifluoromethyl)phenyl)-8,9-dihydro-7H-purine-6-carboxamide] as the compound, how does the melting point read?
A: 348 to 352 °C (dec.)

Q: Which melting point does the source give for COc1ccccc1-n1c(=O)[nH]c2c(C(N)=O)nc(-c3cccc(C#N)c3)nc21 [Compound 55, 2-(3-Cyanophenyl)-9-(2-methoxyphenyl)-8-oxo-8,9-dihydro-7H-purine-6-carboxamide] here?
A: 316 to 318 °C

Q: With NC(=O)c1nc(-c2cncc(Cl)c2)nc2c1[nH]c(=O)n2-c1ccccc1C(F)(F)F [Compound 103, 2-(5-Chloropyridin-3-yl)-8-oxo-9-(2-(trifluoromethyl)phenyl)-8,9-dihydro-7H-purine-6-carboxamide] as the compound, how does the melting point read?
A: 230 to 232 °C

Q: Which melting point does the source give for COc1ccccc1-n1c(=O)[nH]c2c(C(N)=O)nc(Nc3ccccc3CO)nc21 [Compound 124, 2-(2-(Hydroxymethyl)phenylamino)-9-(2-methoxyphenyl)-8-oxo-8,9-dihydro-7H-purine-6-carboxamide] here?
A: 159 to 162 °C

Q: For COc1ccccc1-n1c(=O)[nH]c2c(C(N)=O)nc(-c3cccc(C(=O)O)c3)nc21 [Compound 62, 3-(6-Carbamoyl-9-(2-methoxyphenyl)-8-oxo-8,9-dihydro-7H-purin-2-yl)benzoic acid], which melting point is on record?
A: 348 to 350 °C

Q: For CC(C)c1ccccc1-n1c(=O)[nH]c2c(C(N)=O)nc(-c3ccc(-c4ncc[nH]4)cc3)nc21 [Compound 133, 2-(4-(1H-Imidazol-2-yl)phenyl)-9-(2-isopropylphenyl)-8-oxo-8,9-dihydro-7H-purine-6-carboxamide], which melting point is on record?
A: 340 °C (dec.)

Q: Which melting point does the source give for NC(=O)c1nc(-c2ccc(-c3nc[nH]n3)cc2)nc2c1[nH]c(=O)n2C1CCCCC1 [Compound 146, 2-(4-(1H-1,2,4-Triazol-3-yl)phenyl)-9-cyclohexyl-8-oxo-8,9-dihydro-7H-purine-6-carboxamide] here?
A: 375 °C (dec.)

Q: For CC(C)(C)c1ccccc1-n1c(=O)[nH]c2c(C(N)=O)nc(-c3cccc(O)c3)nc21 [Compound 125, 9-(2-tert-Butylphenyl)-2-(3-hydroxyphenyl)-8-oxo-8,9-dihydro-7H-purine-6-carboxamide], which melting point is on record?
A: 294 to 297 °C

Q: With NC(=O)c1nc(-c2cccc(O)c2)nc2c1[nH]c(=O)n2CC1CCCCC1 [Compound 140, 9-(Cyclohexylmethyl)-2-(3-hydroxyphenyl)-8-oxo-8,9-dihydro-7H-purine-6-carboxamide] as the compound, how does the melting point read?
A: 368 to 370 °C

Q: Which melting point does the source give for COc1ccccc1-n1c(=O)[nH]c2c(C(N)=O)nc(-c3ccc4nc(C)[nH]c4c3)nc21 [Compound 122, 9-(2-Methoxyphenyl)-2-(2-methyl-1H-benzo[d]imidazol-6-yl)-8-oxo-8,9-dihydro-7H-purine-6-carboxamide] here?
A: 270 °C

Q: With COc1ccc(-n2c(=O)[nH]c3c(C(N)=O)nc(-c4cccc(O)c4)nc32)c(C)c1 [Compound 57, 2-(3-Hydroxyphenyl)-9-(4-methoxy-2-methylphenyl)-8-oxo-8,9-dihydro-7H-purine-6-carboxamide] as the compound, how does the melting point read?
A: 355 to 357 °C

Q: Which melting point does the source give for NC(=O)c1nc(-c2cccnc2O)nc2c1[nH]c(=O)n2-c1ccccc1C(F)(F)F [Compound 129, 2-(2-Hydroxypyridin-3-yl)-8-oxo-9-(2-(trifluoromethyl)phenyl)-8,9-dihydro-7H-purine-6-carboxamide] here?
A: 331 to 335 °C

Q: With NC(=O)c1nc(-c2cccc(O)c2)nc2c1[nH]c(=O)n2-c1ccccc1C(F)(F)F [Compound 58, 2-(3-Hydroxyphenyl)-8-oxo-9-(2-(trifluoromethyl)phenyl)-8,9-dihydro-7H-purine-6-carboxamide] as the compound, how does the melting point read?
A: 363 to 365 °C

Q: With COc1ccc(F)c(-n2c(=O)[nH]c3c(C(N)=O)nc(-c4cccc(O)c4)nc32)c1 [Compound 149, 9-(2-Fluoro-5-methoxyphenyl)-2-(3-hydroxyphenyl)-8-oxo-8,9-dihydro-7H-purine-6-carboxamide] as the compound, how does the melting point read?
A: > 260 °C

Q: With NC(=O)c1nc(-c2cccc(O)c2)nc2c1[nH]c(=O)n2[C@@H]1CCOC1 [Compound 162, (R)-2-(3-Hydroxyphenyl)-8-oxo-9-(tetrahydrofuran-3-yl)-8,9-dihydro-7H-purine-6-carboxamide] as the compound, how does the melting point read?
A: 353 to 355 °C

Q: Which melting point does the source give for COc1ccccc1-n1c(=O)[nH]c2c(C(N)=O)nc(N[C@@H]3CCNC3)nc21 [Compound 105, (R)-9-(2-Methoxyphenyl)-8-oxo-2-(pyrrolidin-3-ylamino)-8,9-dihydro-7H-purine-6-carboxamide] here?
A: > 400 °C

Q: With COc1ccccc1-n1c(=O)[nH]c2c(C(N)=O)nc(-c3cnc4nc[nH]c4c3)nc21 [Compound 130, 2-(1H-Imidazo[4,5-b]pyridin-6-yl)-9-(2-methoxyphenyl)-8-oxo-8,9-dihydro-7H-purine-6-carboxamide] as the compound, how does the melting point read?
A: 358 °C (dec.)

Q: With COc1ccccc1-n1c(=O)[nH]c2c(C(N)=O)nc(NC[C@@H]3CCCN3)nc21 [Compound 114, (S)-9-(2-Methoxyphenyl)-8-oxo-2-(pyrrolidin-2-ylmethylamino)-8,9-dihydro-7H-purine-6-carboxamide] as the compound, how does the melting point read?
A: 160 to 165 °C

Q: For COc1ccccc1-n1c(=O)[nH]c2c(C(N)=O)nc(Nc3ccccc3O)nc21 [Compound 56, 2-(2-Hydroxyphenylamino)-9-(2-methoxyphenyl)-8-oxo-8,9-dihydro-7H-purine-6-carboxamide], which melting point is on record?
A: 314 to 315 °C

Q: For NC(=O)c1nc(-c2cccc(O)c2)nc2c1[nH]c(=O)n2[C@H]1CC[C@H](O)CC1 [Compound 49, 9-(trans-4-Hydroxycyclohexyl)-2-(3-hydroxyphenyl)-8-oxo-8,9-dihydro-7H-purine-6-carboxamide], which melting point is on record?
A: 373 to 375 °C
